Measurements published in US11969499B2, “Hydrogel delivery of sting immunotherapy for treatment cancer” (WILLIAM MARSH RICE UNIVERSITY, priority 2017, dated 2024).

What was measured:
MOC2-E6E7 cells = assay: In vitro live/dead cell viability in unloaded and CDN-loaded MDP hydrogel; assay type: cell-based; settings: no CDN, cells in 3-D gel, up to 7 days
Method: Preparation of cell—laden hydrogel for in vitro viability. MDP gel formulations with MOC2-E6E7 cells were prepared by diluting a cell suspension of 2,000,000 cells/mL in 2×HBSS with an equal volume of 4×CDN. The resulting suspension was then added to an equal volume of sterile 2 wt. % peptide in 298 mM sucrose and mixed to produce final samples of approximately 35,000 cells per 70 μL of 1 wt. %, 149 mM sucrose gel. Gels were then transferred into 0.4 cm 2 wells of Lab-Tek 16 well glass chamber slides (Thermo Fischer, Rochester, NY), pipetted to produce 70 μL pucks with flat profiles. Samples were allowed to shear recover for 5-10 mM before adding 200 μL cell media on top of each gel. The cell media was changed every 2 days, taking care to not dislodge the hydrogel material.
Cell viability was determined at each desired time point by performing live/dead assays as described below. Live/dead staining solution was prepared in DPBS with 2 μM Calcein AM for live cells (Life Technologies), 4 μM Ethidium homodimer for dead cells (Life Technologies), and 5 μg/mL Hoechst 33342 for nuclei (MP Biomedicals, Solon, OH). […] Cell media was removed and the gels were washed with PBS. Samples were then stained with 100 μL of prepared solution by incubating at RT for 15-30 mM. Following staining, gels were placed in PBS for immediate analysis by confocal microscopy. Gels were analyzed by z-stack imaging (100 μm) using a Nikon A1 Confocal Microscope with 20× air and 40× water objectives (405 nm blue channel laser, 488 nm green channel laser, 561 nm red channel laser). Image processing was done using NIS Elements, and live/dead cell counting was performed using the cell identification tool in Imaris 3D/4D Image Processing software, manually verified with nuclear counts when resolution allowed.

[1] = CDN drug release kinetics from hydrogels (UV absorbance at 259 nm); assay type: physicochemical
Method: CDN release kinetics. 30 μL CDN-loaded gel aliquots are deposited into 96 well plates with 200 μL of buffer added to the top of the gels at time point t=0. For all kinetics experiments, a Thermo Scientific Nanodrop 2000C Spectrophotometer is used to measure UV absorbance at 259 nm, the characteristic wavelength of maximum absorbance for the adenine nucleobases present in the CDN. See FIG. 1A for an example of preliminary release kinetics data.
CDN drug release kinetics. To study the kinetics of CDN release from STINGel vs. collagen gel, 30 μL CDN-loaded gel aliquots were deposited into Falcon® 96 well flat bottom polystyrene plates (Becton Dickinson Labware, Franklin Lakes, NJ). For each experiment, cylindrical pucks of the 30 μL gel aliquots were created in each well, allowing the pipetted gels to shear recover for at least 5 mM before adding 200 μL of buffer (1×HBSS for STINGel, lx DPBS for collagen, according to gelation requirements) to the top of the gels at what was defined as t=0 for the start of kinetics experiments. The buffer height was approximately 2.5 mm, the gel thickness approximately 0.5 mm, and the gel's solvent exposed surface area approximately 12.6 mm^2.
A Thermo Scientific Nanodrop 2000C Spectrophotometer was used to measure UV absorbance at 259 nm, the characteristic wavelength of maximum absorbance for the CDN's adenine nucleobases. An extinction coefficient of 24,000 M^−1 cm^−1 at 259 nm was used. Absorbance measurements were taken by removal of 1 μL aliquots from the surface of the buffers, measuring the increase in absorbance over time. Release of CDN was measured over the course of the first 24 hours and converted to total percent released, with additional measurements also made at 48 and 72 hours to confirm that the samples had reached equilibrium.

[2] = In vivo subcutaneous hydrogel implants, histology (Masson's trichrome, H&E); settings: 910 μM CDN where loaded
Method: In vivo subcutaneous implants. 200 μL subcutaneous injections are made in two separate 1-inch spaced sites on the dorsal flank. At tested time points mice are euthanized and the dorsal skin around the entire implant is removed, washed with PBS, and fixed in formalin for 24 hours prior to tissue processing (Wellings & Atherton, 1997; Guy & Fields, 1997). Details are provided in the Vertebrate Animal section. Tissue is processed to paraffin blocks, sectioned at 7 μm, deparaffinized and stained for cellular infiltrate using hematoxylin and eosin (H&E) and Masson's Trichrome. Here, and elsewhere, male and female populations will be assessed combined as well as separately to determine if sexual dichotomy exists in the biomaterial interaction and regenerative response.
Subcutaneous experiments and histology. Male/female mice (C57BL/6 strain) of age 8-12 weeks were obtained for subcutaneous experiments, which were conducted with Rice IACUC approval and according to NIH guidelines. Mice were injected with 40 μL CDN-loaded hydrogel (910 μM CDN) or 100 μL unloaded hydrogel in each of four separate sites in the subcutaneous space of the dorsal flank. At days 3 and 7 the mice were euthanized and the dorsal skin around the entire implant was removed, fixed overnight in 10% neutral buffered formalin, processed and paraffin embedded by the Baylor College of Medicine Pathology Core, and finally sectioned at 5 μm thickness for Masson's trichrome staining and hematoxylin and eosin (H&E) staining (FIGS. 14A-F and 16A-F).

[3] = 30 μL gels loaded with 910 μM CDN under 200 μL buffer

## K2(SL)6K2 (SEQ ID NO: 1) (Ac-KKSLSLSLSLSLSLKK-NH2) [MDP gel, self-assembling multidomain peptide hydrogel, acetylated N-terminus and C-terminal amide]
MOC2-E6E7 cells; listed as Lys-MDP
  cytocompatibility of unloaded hydrogel: substantial MOC-2-E6E7 proliferation (green cells) & minimal cell death
MOC2-E6E7 cells; listed as MDP hydrogel
  cytocompatibility of unloaded hydrogel: not intrinsically toxic
MOC2-E6E7 cells; listed as unloaded MDP gel
  cytocompatibility of unloaded hydrogel: fully biocompatible
MOC2-E6E7 cells; listed as unloaded MDP hydrogel
  cytocompatibility of unloaded hydrogel: cells are able to survive and proliferate within the 3-D hydrogel matrix
[1]; [3]
  decrease in release rate compared to collagen control gels, factor: 8
  maximum release of loaded CDN (plateau/equilibrium): approximately 68%
  release rate in the initial linear release phase: 1.0 nmol CDN/hour
  time of CDN release until equilibrium with surrounding buffer: 14 to 15 h
[1]; CDN release, preliminary data
  release profile of gels (FIG. 3A): intermediate release rates
[2]; 3 days post subcutaneous injection, listed as MDP control
  cellular infiltration of implant: even infiltration of cells
[2]; 3 days post subcutaneous injection, listed as MDP unloaded control
  cellular infiltration of implant: even infiltration of cells
[2]; 3 days post subcutaneous injection, listed as unloaded MDP
  cellular infiltration of implant: Uniform cellular infiltration
[2]; 7 days post subcutaneous injection
  cellular infiltration of implant: even infiltration of cells
